Measured values published in patent US20230113037A1 (Bayer Aktiengesellschaft, priority 2019, published 2023).
Like-named read-outs stand apart in the source and are kept apart here.

Legend:
AHR [1] = target: T1, AHR (Homo sapiens, UniProt P35869); assay: In vitro assay 1: antagonism in human cell line (AHR transactivation, firefly luciferase reporter, kynurenic acid prestimulated); assay type: cell-based; conditions: AHR Antagonism Human IC50 [M]
T1 construct: U87 MG glioblastoma cells (ATCC #HTB-14) endogenously expressing AHR; endogenous in cells; host or cells: U87 MG glioblastoma cells (ATCC #HTB-14)
T1 sequence (P35869 11-848): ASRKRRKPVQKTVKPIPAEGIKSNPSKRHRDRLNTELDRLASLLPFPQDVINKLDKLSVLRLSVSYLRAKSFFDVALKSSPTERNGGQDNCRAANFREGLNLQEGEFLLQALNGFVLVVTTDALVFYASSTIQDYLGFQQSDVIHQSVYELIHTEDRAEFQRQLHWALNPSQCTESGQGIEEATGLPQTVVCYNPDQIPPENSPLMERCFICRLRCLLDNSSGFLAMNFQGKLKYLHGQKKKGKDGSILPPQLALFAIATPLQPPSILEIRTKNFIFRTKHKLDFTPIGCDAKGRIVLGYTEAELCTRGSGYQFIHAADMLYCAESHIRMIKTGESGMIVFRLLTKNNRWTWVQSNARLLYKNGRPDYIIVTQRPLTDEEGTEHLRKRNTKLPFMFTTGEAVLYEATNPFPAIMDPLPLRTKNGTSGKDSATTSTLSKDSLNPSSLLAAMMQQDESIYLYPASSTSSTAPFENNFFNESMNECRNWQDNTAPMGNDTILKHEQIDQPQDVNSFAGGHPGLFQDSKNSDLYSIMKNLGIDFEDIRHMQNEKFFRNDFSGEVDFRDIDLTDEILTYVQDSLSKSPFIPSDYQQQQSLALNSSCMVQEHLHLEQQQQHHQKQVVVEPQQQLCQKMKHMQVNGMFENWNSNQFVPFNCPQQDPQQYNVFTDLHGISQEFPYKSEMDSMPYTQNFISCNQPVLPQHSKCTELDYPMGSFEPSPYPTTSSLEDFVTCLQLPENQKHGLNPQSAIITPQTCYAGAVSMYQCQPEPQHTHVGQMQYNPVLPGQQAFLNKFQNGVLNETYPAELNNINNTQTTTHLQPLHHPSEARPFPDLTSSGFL
Outline: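 Antagonism is measured against kynurenic acid prestimulation in U87 MG glioblastoma cells carrying stable DRE-luciferase and Renilla reporters. Positive inhibition control: 150 μM kynurenic acid with 5 μM staurosporine. Values are normalized to controls; repeats are averaged or given as medians.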

AHR [2] = target: T2, AHR (Mus musculus, UniProt P30561); assay: In vitro assay 3: antagonism in mouse cell line (AHR transactivation, firefly luciferase reporter, kynurenic acid prestimulated); assay type: cell-based
T2 sequence (P30561 1-848 P471L/N533S/M589L): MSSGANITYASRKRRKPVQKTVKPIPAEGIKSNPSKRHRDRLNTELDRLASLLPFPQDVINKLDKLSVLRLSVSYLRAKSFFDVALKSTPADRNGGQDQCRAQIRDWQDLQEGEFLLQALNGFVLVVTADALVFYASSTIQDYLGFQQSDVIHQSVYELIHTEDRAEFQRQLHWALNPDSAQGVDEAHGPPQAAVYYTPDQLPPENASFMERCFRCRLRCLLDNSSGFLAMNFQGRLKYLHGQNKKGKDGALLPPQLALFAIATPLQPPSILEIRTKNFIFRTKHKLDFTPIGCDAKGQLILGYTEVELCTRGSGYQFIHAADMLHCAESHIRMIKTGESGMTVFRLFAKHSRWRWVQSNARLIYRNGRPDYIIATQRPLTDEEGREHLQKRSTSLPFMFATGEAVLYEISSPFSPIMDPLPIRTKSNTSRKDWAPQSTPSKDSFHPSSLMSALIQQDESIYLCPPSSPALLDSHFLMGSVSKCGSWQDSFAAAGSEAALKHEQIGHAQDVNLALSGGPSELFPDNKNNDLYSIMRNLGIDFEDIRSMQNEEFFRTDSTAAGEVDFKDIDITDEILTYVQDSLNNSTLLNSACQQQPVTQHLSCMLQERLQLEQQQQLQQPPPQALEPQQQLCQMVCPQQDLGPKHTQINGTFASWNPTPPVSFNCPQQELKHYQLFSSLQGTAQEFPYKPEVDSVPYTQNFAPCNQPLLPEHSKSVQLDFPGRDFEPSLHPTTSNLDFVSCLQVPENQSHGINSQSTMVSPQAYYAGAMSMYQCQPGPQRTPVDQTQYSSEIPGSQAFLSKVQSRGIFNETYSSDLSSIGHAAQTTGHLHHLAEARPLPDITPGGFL
Outline: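 Antagonism read as reduced firefly luciferase signal (SteadyGlo) from a stably transfected AHR/DRE reporter in a mouse line prestimulated with kynurenic acid. Data normalized to controls, the full-inhibition control being cells without kynurenic acid; multiple determinations given as average or median values.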

[3] = mouse Hepa 1c1c7 cells, 200 μM kynurenic acid, 20 hours, read-out: AHR Antagonism Mouse IC50

| IC50 (AHR [1]) [M] | IC50 (AHR [2]; [3]) [nM] | SMILES | IC50 (AHR [2]; read-out: AHR Antagonism Mouse IC50, mouse Hepa 1c1c7 cells, 200 μM kynurenic acid, 20 hours) [nM] |
| --- | --- | --- | --- |
| 1.16e-08 | 5.28 | Cc1cccc(-c2nc3c4ccccc4nc(N[C@@H]4CCCCNC4=O)n3n2)c1 [Example 53, (3R)-3-{[2-(3-methylphenyl)[1,2,4]triazolo[1,5-c]quinazolin-5-yl]amino}azepan-2-one] | – |
| 2.01e-09 | 15.7 | O=C1NCCCC[C@H]1Nc1nc2ccccc2c2nc(-c3ccccc3F)nn12 [Example 55, (3R)-3-{[2-(2-fluorophenyl)[1,2,4]triazolo[1,5-c]quinazolin-5-yl]amino}azepan-2-one] | – |
| > 2e-05 | 131 | COc1ccccc1-c1nc2c3ccccc3nc(N[C@H]3CCCCNC3=O)n2n1 [Example 60, (3S)-3-{[2-(2-methoxyphenyl)[1,2,4]triazolo[1,5-c]quinazolin-5-yl]amino}azepan-2-one] | – |
| 3.63e-08 | 664 | COc1ccccc1-c1nc2c3ccccc3nc(N[C@@H]3CCCCNC3=O)n2n1 [Example 61, (3R)-3-{[2-(2-methoxyphenyl)[1,2,4]triazolo[1,5-c]quinazolin-5-yl]amino}azepan-2-one] | – |
| 1.11e-07 | 154 | O=C1NCCCC[C@H]1Nc1nc2ccccc2c2nc(-c3cc[nH]n3)nn12 [Example 62, (3R)-3-{[2-(1H-pyrazol-3-yl)[1,2,4]triazolo[1,5-c]quinazolin-5-yl]amino}azepan-2-one] | – |
| 2.87e-08 | 41.9 | Cn1ccc(-c2nc3c4ccccc4nc(N[C@@H]4CCCCNC4=O)n3n2)n1 [Example 63, (3R)-3-{[2-(1-methyl-1H-pyrazol-3-yl)[1,2,4]triazolo[1,5-c]quinazolin-5-yl]amino}azepan-2-one] | – |
| 6.33e-08 | 85 | Cc1cc(-c2nc3c4ccccc4nc(N[C@@H]4CCCCNC4=O)n3n2)n[nH]1 [Example 64, (3R)-3-{[2-(5-methyl-1H-pyrazol-3-yl)[1,2,4]triazolo[1,5-c]quinazolin-5-yl]amino}azepan-2-one] | – |
| 6.42e-09 | 3.17 | Cn1nccc1-c1nc2c3ccccc3nc(N[C@@H]3CCCCNC3=O)n2n1 [Example 65, (3R)-3-{[2-(1-methyl-1H-pyrazol-5-yl)[1,2,4]triazolo[1,5-c]quinazolin-5-yl]amino}azepan-2-one] | – |
| 1.36e-09 | 1.01 | CCn1cc(-c2nc3c4ccccc4nc(N[C@@H]4CCCCNC4=O)n3n2)c(C)n1 [Example 66, (3R)-3-{[2-(1-ethyl-3-methyl-1H-pyrazol-4-yl)[1,2,4]triazolo[1,5-c]quinazolin-5-yl]amino}azepan-2-one] | – |
| 6.43e-09 | 5.53 | CCn1cc(-c2nc3c4ccccc4nc(N[C@@H]4CCCCNC4=O)n3n2)cn1 [Example 67] | – |
| 3.59e-07 | 460 | O=C1NCCCC[C@H]1Nc1nc2ccccc2c2nc(-c3cn[nH]c3)nn12 [Example 69, (3R)-3-{[2-(1H-pyrazol-4-yl)[1,2,4]triazolo[1,5-c]quinazolin-5-yl]amino}azepan-2-one] | – |
| 2.44e-08 | 51.7 | Cc1nc(-c2nc3c4ccccc4nc(N[C@@H]4CCCCNC4=O)n3n2)co1 [Example 70, (3R)-3-{[2-(2-methyl-1,3-oxazol-4-yl)[1,2,4]triazolo[1,5-c]quinazolin-5-yl]amino}azepan-2-one] | – |
| 2.57e-09 | 0.359 | COc1cccc(-c2nc3c4ccccc4nc(N[C@@H]4CCCCNC4=O)n3n2)c1 [Example 75, (3R)-3-{[2-(3-methoxyphenyl)[1,2,4]triazolo[1,5-c]quinazolin-5-yl]amino}azepan-2-one] | – |
| 4.82e-08 | 4.57 | COc1cccc(-c2nc3c4ccccc4nc(N[C@H]4CCCCNC4=O)n3n2)c1 [Example 76, (3S)-3-{[2-(3-methoxyphenyl)[1,2,4]triazolo[1,5-c]quinazolin-5-yl]amino}azepan-2-one] | – |

Continued, compound first:

| SMILES | IC50 (AHR [1]) [M] | IC50 (AHR [2]; [3]) [nM] | IC50 (AHR [2]; read-out: AHR Antagonism Mouse IC50, mouse Hepa 1c1c7 cells, 200 μM kynurenic acid, 20 hours) [nM] |
| --- | --- | --- | --- |
| Cc1ccccc1-c1nc2c3ccccc3nc(NC3CNCCNC3=O)n2n1 (stereo not shown) [Example 45, 6-{[2-(2-methylphenyl)[1,2,4]triazolo[1,5-c]quinazolin-5-yl]amino}-1,4-diazepan-5-one] | 1.19e-08 | 14.5 | – |
| O=C1NCCCC[C@H]1Nc1nc2ccccc2c2nc(-c3ccccc3C(F)(F)F)nn12 [Example 52, (3R)-3-({2-[2-(trifluoromethyl)phenyl][1,2,4]triazolo[1,5-c]quinazolin-5-yl}amino)azepan-2-one] | 1.3e-08 | 3.22 | – |
| O=C1NCCCC[C@H]1Nc1nc2ccccc2c2nc(-c3cccc(C(F)(F)F)c3)nn12 [Example 54, (3R)-3-({2-[3-(trifluoromethyl)phenyl][1,2,4]triazolo[1,5-c]quinazolin-5-yl}amino)azepan-2-one] | 2.08e-08 | 3.2 | – |
| Cc1c(-c2nc3c4ccccc4nc(N[C@@H]4CCCCNC4=O)n3n2)cnn1C [Example 68, (3R)-3-{[2-(1,5-dimethyl-1H-pyrazol-4-yl)[1,2,4]triazolo[1,5-c]quinazolin-5-yl]amino}azepan-2-one] | 1.03e-08 | – | 8.57 |
| COc1cccc(-c2nc3c4ccccc4nc(NC4CCCNC4=O)n3n2)c1 (stereo not shown) [Example 77, 3-{[2-(3-methoxyphenyl)[1,2,4]triazolo[1,5-c]quinazolin-5-yl]amino}piperidin-2-one] | 6.52e-08 | 52.1 | – |
| COc1cccc(-c2nc3c4ccccc4nc(N[C@H](CO)C(N)=O)n3n2)c1 [Example 79, N^2-[2-(3-methoxyphenyl)[1,2,4]triazolo[1,5-c]quinazolin-5-yl]-D-serinamide] | 4.9e-08 | 52.2 | – |
| COc1cccc(-c2nc3c4ccccc4nc(N[C@@H](C)C(N)=O)n3n2)c1 [Example 81] | 4.02e-07 | 287 | – |
| COc1cccc(-c2nc3c4ccccc4nc(N[C@H](CC(C)C)C(N)=O)n3n2)c1 [Example 82, N^2-[2-(3-methoxyphenyl)[1,2,4]triazolo[1,5-c]quinazolin-5-yl]-D-leucinamide] | 8.87e-09 | 12.9 | – |
| COc1cccc(-c2nc3c4ccccc4nc(N[C@H](C(N)=O)C(C)C)n3n2)c1 [Example 83, N^2-[2-(3-methoxyphenyl)[1,2,4]triazolo[1,5-c]quinazolin-5-yl]-L-valinamide] | 6.99e-07 | 115 | – |
| COc1cccc(-c2nc3c4ccccc4nc(N[C@@H](Cc4ccc(O)cc4)C(N)=O)n3n2)c1 [Example 84, N^2-[2-(3-methoxyphenyl)[1,2,4]triazolo[1,5-c]quinazolin-5-yl]-L-tyrosinamide] | 1.01e-06 | 1380 | – |
| COc1cccc(-c2nc3c4ccccc4nc(N[C@@H](CO)C(N)=O)n3n2)c1 [Example 85, N^2-[2-(3-methoxyphenyl)[1,2,4]triazolo[1,5-c]quinazolin-5-yl]-L-serinamide] | 4.95e-07 | 229 | – |
| COc1cccc(-c2nc3c4ccccc4nc(NC4(C(N)=O)COC4)n3n2)c1 [Example 87, 3-{[2-(3-methoxyphenyl)[1,2,4]triazolo[1,5-c]quinazolin-5-yl]amino}oxetane-3-carboxamide] | 4.85e-07 | 282 | – |
